Patent US10669290B2, “Beta-lactamase inhibitors” (priority 2012, dated 2020)
Like-named read-outs stand apart in the source and are kept apart here.

Columns and labels:
p99 AmpC = biological target: T1, p99 AmpC (Enterobacter cloacae, UniProt P05364); assay: β-Lactamase inhibition, p99 AmpC (nitrocefin substrate); type: biochemical
T1 construct: made in house; host or cells: E. coli BL21 (DE3)
Description: (§1) For SHV-5, Kpc-2, p99AmpC and OXA-1 β-lactamases, E. coli BL21 (DE3) bacterial cells carrying expression plasmids (expressed as native untagged proteins) for the individual β-lactamases were grown in 1 L of Superbroth (Teknova Inc. Hollister, Calif.) supplemented with 100 μg/ml kanamycin selection and 1×5052 (0.5% glycerol, 0.05% glucose and 0.2% α-lactose) at 35° C. for 18-20 hours. Cells were harvested by centrifugation (4,000×g, 4° C., 20 min), resuspended in 50 ml of 10 mM HEPES pH 7.5 ( 1/20 of the initial volume). The cells were lysed by sonication (5 pulses of 45 seconds) at 45 W on ice. The lysates were clarified by centrifugation at 10,000×g for 40 minutes at 4° C. Samples were diluted 5-fold in 50 mM sodium acetate pH 5.0, stored overnight at 4° C., after which they were centrifuged at 10,000×g for 30 minutes to clarify, and filtered through 0.45 µm filters. The samples were loaded onto a 5 ml Capto S sepharose cation exchange column (GE Healthcare) pre-equilibrated with 50 mM sodium acetate pH 5.0. The column was washed with 5 column volumes of 50 mM sodium acetate pH 5.0 to wash out unbound protein and a linear gradient of NaCl (0 to 500 mM) was used to elute the protein (over 16 CV) from the column. Fractions were assayed for β-lactamase activity using Centa (Calbiochem, Gibbstown, N.J.) or Nitrocefin (EMD Millipore chemicals, Darmstadt, Germany) as a reporter β-lactamase substrate for activity in the isolated fractions. Active fractions were pooled, concentrated and further purified by gel filtration chromatography on a Superdex 75 prep grade gel filtration column (GE Healthcare, Piscataway, N.J.) pre-equilibrated in 50 mM Hepes pH 7.5, 150 mM NaCl. Active fractions were pooled concentrated, quantitated by BCA protein determination (Thermo Scientific, Rockford, Ill.), dialyzed into PBS and frozen at −80° C. in 20% glycerol until use.
(§2) An equal volume of diluted enzyme stock was added, and the plates were incubated at 37° C. for 15 min. Nitrocefin was used as substrate for p99 AmpC, VIM-2 and OXA-1 and dispensed into each well at a final concentration of 100 μM. Absorbance at 486 nm was immediately monitored for 10 min using a Biotek Powerwave XS2 microplate spectrophotometer using the GEN5 software package (Biotek Instruments, Winooski Vt.). In an analogous fashion, imipenem was used as substrate for Kpc-2 and Cefotaxime was used for SHV-5, while changes in absorbance upon hydrolysis of the β-lactam ring were monitored at 300 nm and 260 nm respectively in UV-transparent 96-well microtiter assay plates. Maximum rates of hydrolysis were compared to those in control wells (without inhibitors), and percentages of enzyme inhibition were calculated for each concentration of inhibitor. The concentration of inhibitor needed to reduce the initial rate of hydrolysis of substrate by 50% (IC50) was calculated as the residual activity of β-lactamase at 486 nm using GraFit version 7 kinetics software package (Erithacus Software, Surrey, UK).
Using the methodology described above, examples of the current invention were evaluated for their ability to inhibit β-lactamase enzymes from all four Ambler classifications (A through D). […] NT=Not tested.

K.P. 156319 KPC-3 = assay: Broth microdilution MIC, K. pneumoniae 156319; type: cell-based; details: fixed meropenem 4 μg/mL, CAMHB, 16-20 hours 37° C.; for MIC: Klebsiella pneumoniae, read-out: MIC of exemplary compounds in presence of fixed β-lactams, Fixed Mero, K.P. 156319 KPC-3
K.P. A-1797 KPC-2 VIM-4 = assay: Broth microdilution MIC, K. pneumoniae A-1797; type: cell-based; details: fixed meropenem 4 μg/mL, CAMHB, 16-20 hours 37° C.; for MIC: Klebsiella pneumoniae, read-out: MIC of exemplary compounds in presence of fixed β-lactams, Fixed Mero, K.P. A-1797 KPC-2 VIM-4
E. cl 144200 p99 AmpC = assay: Broth microdilution MIC, E. cloacae 144200; type: cell-based; details: fixed ceftazidime 4 μg/mL, CAMHB, 16-20 hours 37° C.; for MIC: Enterobacter cloacae, read-out: MIC of exemplary compounds in presence of fixed β-lactams, Fixed CAZ, E. cl 144200 p99 AmpC
Summary of the method: (§3)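 In this CLSI broth microdilution format, plates hold the test compound titrated 2-fold (32 to 0.25 μg/mL final) in CAMHB plus a fixed 4 μg/ml β-lactam. Incubation runs 16-20 h at 37° C, and the MIC is scored by eye.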

E. coli ESBL4 CTX-M-15 = assay: Broth microdilution MIC, E. coli ESBL4; type: cell-based; details: fixed ceftazidime 4 μg/mL, CAMHB, 16-20 hours 37° C.; for MIC: Escherichia coli, ESBL4CTXM15, read-out: MIC of exemplary compounds in presence of fixed β-lactams, Fixed CAZ, E. coli ESBL4 CTX-M-15
Summary of the method: as §3

P. aerug. Ps296 VIM-2 = assay: Broth microdilution MIC, P. aeruginosa Ps296; type: cell-based; details: fixed meropenem 4 μg/mL, CAMHB, 16-20 hours 37° C.; for MIC: Pseudomonas aeruginosa, read-out: MIC of exemplary compounds in presence of fixed β-lactams, Fixed Mero, P. aerug. Ps296 VIM-2
Summary of the method: as §3

S. aureus MSSA-7 PC-1 = assay: Broth microdilution MIC, S. aureus MSSA-7; type: cell-based; details: Staphylococcus aureus, fixed piperacillin 4 μg/mL, CAMHB, 16-20 hours 37° C., read-out: MIC of exemplary compounds in presence of fixed β-lactams, Fixed Pip, S. aureus MSSA-7 PC-1
KPC-2 = biological target: T2, KPC-2 (Klebsiella pneumoniae, UniProt Q9F663); assay: β-Lactamase inhibition, KPC-2 (imipenem substrate); type: biochemical
T2 construct: made in house; host or cells: E. coli BL21 (DE3)
T2 sequence (Q9F663 25-293 limits assumed): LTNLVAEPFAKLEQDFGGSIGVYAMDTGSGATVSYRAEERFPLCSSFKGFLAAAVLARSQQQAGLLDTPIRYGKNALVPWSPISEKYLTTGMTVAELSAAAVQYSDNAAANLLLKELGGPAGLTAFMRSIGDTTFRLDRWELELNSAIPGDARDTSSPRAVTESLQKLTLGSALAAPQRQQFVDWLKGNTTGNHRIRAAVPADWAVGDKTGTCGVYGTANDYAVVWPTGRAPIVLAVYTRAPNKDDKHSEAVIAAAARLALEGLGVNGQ
Description: as §1, with “The column was washed with 5 column volumes of 50 mM sodium acetate pH 5.0 to wash out unbound protein and a linear gradient of NaCl (0 to 500 mM) was used to elute the protein (over 16 CV) from the column. Fractions were assayed for β-lactamase activity using Centa (Calbiochem, Gibbstown, N.J.) or Nitrocefin (EMD Millipore chemicals, Darmstadt, Germany) as a reporter β-lactamase substrate for activity in the isolated fractions. Active fractions were pooled, concentrated and further purified by gel filtration chromatography on a Superdex 75 prep grade gel filtration column (GE Healthcare, Piscataway, N.J.) pre-equilibrated in 50 mM Hepes pH 7.5, 150 mM NaCl.” left out
as §2, with “Nitrocefin was used as substrate for p99 AmpC, VIM-2 and OXA-1 and dispensed into each well at a final concentration of 100 μM.” left out, “The concentration of inhibitor needed to reduce the initial rate of hydrolysis of substrate by 50% (IC50) was calculated as the residual activity of β-lactamase at 486 nm using GraFit version 7 kinetics software package (Erithacus Software, Surrey, UK).” left out

OXA-1 = biological target: T3, OXA-1 (Escherichia coli, UniProt P13661); assay: β-Lactamase inhibition, OXA-1 (nitrocefin substrate); type: biochemical
T3 construct: made in house; host or cells: E. coli BL21 (DE3)
T3 sequence (P13661 26-276): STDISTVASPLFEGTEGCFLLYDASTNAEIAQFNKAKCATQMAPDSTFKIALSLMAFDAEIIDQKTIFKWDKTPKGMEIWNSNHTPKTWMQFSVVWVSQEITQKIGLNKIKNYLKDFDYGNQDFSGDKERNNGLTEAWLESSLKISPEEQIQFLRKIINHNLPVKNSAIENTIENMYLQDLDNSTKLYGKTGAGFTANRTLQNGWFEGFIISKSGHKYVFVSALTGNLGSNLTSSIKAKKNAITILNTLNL
Description: as §1, with “The column was washed with 5 column volumes of 50 mM sodium acetate pH 5.0 to wash out unbound protein and a linear gradient of NaCl (0 to 500 mM) was used to elute the protein (over 16 CV) from the column. Fractions were assayed for β-lactamase activity using Centa (Calbiochem, Gibbstown, N.J.) or Nitrocefin (EMD Millipore chemicals, Darmstadt, Germany) as a reporter β-lactamase substrate for activity in the isolated fractions. Active fractions were pooled, concentrated and further purified by gel filtration chromatography on a Superdex 75 prep grade gel filtration column (GE Healthcare, Piscataway, N.J.) pre-equilibrated in 50 mM Hepes pH 7.5, 150 mM NaCl.” left out
as §2, with “Nitrocefin was used as substrate for p99 AmpC, VIM-2 and OXA-1 and dispensed into each well at a final concentration of 100 μM.” left out, “The concentration of inhibitor needed to reduce the initial rate of hydrolysis of substrate by 50% (IC50) was calculated as the residual activity of β-lactamase at 486 nm using GraFit version 7 kinetics software package (Erithacus Software, Surrey, UK).” left out

SHV-5 = biological target: T4, SHV-5 (Klebsiella pneumoniae, UniProt P0A3M1); assay: β-Lactamase inhibition, SHV-5 (cefotaxime substrate); type: biochemical
T4 construct: made in house; host or cells: E. coli BL21 (DE3)
T4 sequence (P0A3M1 22-286): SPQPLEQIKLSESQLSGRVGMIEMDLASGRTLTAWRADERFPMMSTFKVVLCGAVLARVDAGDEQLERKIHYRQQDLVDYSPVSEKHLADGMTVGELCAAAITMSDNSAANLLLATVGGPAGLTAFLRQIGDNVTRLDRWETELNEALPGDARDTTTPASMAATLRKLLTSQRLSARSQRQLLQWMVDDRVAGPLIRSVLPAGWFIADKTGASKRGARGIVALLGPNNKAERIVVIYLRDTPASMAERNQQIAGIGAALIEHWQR
Description: as §1, with “The column was washed with 5 column volumes of 50 mM sodium acetate pH 5.0 to wash out unbound protein and a linear gradient of NaCl (0 to 500 mM) was used to elute the protein (over 16 CV) from the column. Fractions were assayed for β-lactamase activity using Centa (Calbiochem, Gibbstown, N.J.) or Nitrocefin (EMD Millipore chemicals, Darmstadt, Germany) as a reporter β-lactamase substrate for activity in the isolated fractions. Active fractions were pooled, concentrated and further purified by gel filtration chromatography on a Superdex 75 prep grade gel filtration column (GE Healthcare, Piscataway, N.J.) pre-equilibrated in 50 mM Hepes pH 7.5, 150 mM NaCl.” left out
as §2, with “Nitrocefin was used as substrate for p99 AmpC, VIM-2 and OXA-1 and dispensed into each well at a final concentration of 100 μM.” left out, “The concentration of inhibitor needed to reduce the initial rate of hydrolysis of substrate by 50% (IC50) was calculated as the residual activity of β-lactamase at 486 nm using GraFit version 7 kinetics software package (Erithacus Software, Surrey, UK).” left out

VIM-2 = biological target: T5, VIM-2 (Escherichia coli, UniProt Q5U7L7); assay: β-Lactamase inhibition, VIM-2 (nitrocefin substrate); type: biochemical
T5 construct: made in house; host or cells: E. coli BL21 (DE3)
Description: as §1, with “The column was washed with 5 column volumes of 50 mM sodium acetate pH 5.0 to wash out unbound protein and a linear gradient of NaCl (0 to 500 mM) was used to elute the protein (over 16 CV) from the column. Fractions were assayed for β-lactamase activity using Centa (Calbiochem, Gibbstown, N.J.) or Nitrocefin (EMD Millipore chemicals, Darmstadt, Germany) as a reporter β-lactamase substrate for activity in the isolated fractions. Active fractions were pooled, concentrated and further purified by gel filtration chromatography on a Superdex 75 prep grade gel filtration column (GE Healthcare, Piscataway, N.J.) pre-equilibrated in 50 mM Hepes pH 7.5, 150 mM NaCl.” left out, “use. […]” for “use.”
as §2, with “Nitrocefin was used as substrate for p99 AmpC, VIM-2 and OXA-1 and dispensed into each well at a final concentration of 100 μM.” left out, “The concentration of inhibitor needed to reduce the initial rate of hydrolysis of substrate by 50% (IC50) was calculated as the residual activity of β-lactamase at 486 nm using GraFit version 7 kinetics software package (Erithacus Software, Surrey, UK).” left out

[1] = nitrocefin 100 μM, 486 nm, 15 min preincubation 37° C., PBS pH 7.4, read-out: IC50 AmpC (Class C)

T1 sequence (P05364 21-381): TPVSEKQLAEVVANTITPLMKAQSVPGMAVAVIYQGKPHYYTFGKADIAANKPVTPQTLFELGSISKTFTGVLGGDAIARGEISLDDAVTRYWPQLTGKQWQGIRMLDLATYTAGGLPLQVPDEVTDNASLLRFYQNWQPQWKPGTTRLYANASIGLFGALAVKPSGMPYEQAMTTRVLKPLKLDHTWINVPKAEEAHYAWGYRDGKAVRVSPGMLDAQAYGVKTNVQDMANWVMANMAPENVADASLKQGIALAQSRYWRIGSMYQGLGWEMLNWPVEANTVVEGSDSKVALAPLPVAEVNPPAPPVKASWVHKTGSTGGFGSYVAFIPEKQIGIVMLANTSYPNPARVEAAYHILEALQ

SMILES	IC50 (p99 AmpC; [1]) [nM]	MIC (K.P. 156319 KPC-3) [µg/mL]	MIC (K.P. A-1797 KPC-2 VIM-4) [µg/mL]	MIC (E. cl 144200 p99 AmpC) [µg/mL]	MIC (E. coli ESBL4 CTX-M-15) [µg/mL]	MIC (P. aerug. Ps296 VIM-2) [µg/mL]	MIC (S. aureus MSSA-7 PC-1) [µg/mL]	IC50 (KPC-2) [nM]	IC50 (OXA-1) [nM]	IC50 (p99 AmpC) [nM]	IC50 (SHV-5) [nM]	MIC of exemplary compounds in presence of fixed β-lactams, Fixed Mero, K.P. 156319 KPC-3 (K.P. 156319 KPC-3)	MIC of exemplary compounds in presence of fixed β-lactams, Fixed Mero, K.P. A-1797 KPC-2 VIM-4 (K.P. A-1797 KPC-2 VIM-4)	IC50 (VIM-2) [nM]	MIC of exemplary compounds in presence of fixed β-lactams, Fixed CAZ, E. cl 144200 p99 AmpC (E. cl 144200 p99 AmpC)	MIC of exemplary compounds in presence of fixed β-lactams, Fixed CAZ, E. coli ESBL4 CTX-M-15 (E. coli ESBL4 CTX-M-15)	MIC of exemplary compounds in presence of fixed β-lactams, Fixed Mero, P. aerug. Ps296 VIM-2 (P. aerug. Ps296 VIM-2)
O=C(CC1CCC(NC2CNC2)CC1)N[C@H]1Cc2cccc(C(=O)O)c2OB1O (stereo partly drawn) [Example 36, (3R)-3-(2-(4-(azetidin-3-ylamino)cyclohexyl)acetamido)-2-hydroxy-3,4-dihydro-2H-benzo[e][1,2]oxaborinine-8-carboxylic acid]	< 100	< 4	8 to 32	< 4	< 4	< 4	< 4										
NC1CN(C2CCC(CC(=O)N[C@H]3Cc4cccc(C(=O)O)c4OB3O)CC2)C1 (stereo partly drawn) [Example 35, (3R)-3-(2-(4-(3-aminoazetidin-1-yl)cyclohexyl)acetamido)-2-hydroxy-3,4-dihydro-2H-benzo[e][1,2]oxaborinine-8-carboxylic acid]	< 100	< 4	8 to 32	< 4	< 4	< 4	< 4										
O=C(CC1CCC(O)CC1)N[C@H]1Cc2cccc(C(=O)O)c2OB1O (stereo partly drawn) [Example 47, (3R)-2-hydroxy-3-(2-(4-hydroxycyclohexyl)acetamido)-3,4-dihydro-2H-benzo[e][1,2]oxaborinine-8-carboxylic acid]	< 100	< 4	> 32	< 4	< 4	8 to 32	< 4										
N[C@@H]1CC[C@@H](C(=O)N[C@H]2Cc3cccc(C(=O)O)c3OB2O)C[C@H]1N (mixture of isomers) [Example 20, (3R)-3-[[(1S,3S,4S)-3,4-diaminocyclohexanecarbonyl]amino]-2-hydroxy-3,4-dihydro-1,2-benzoxaborinine-8-carboxylic acid and (3R)-3-[[(1R,3R,4R)-3,4-diaminocyclohexanecarbonyl]amino]-2-hydroxy-3,4-dihydro-1,2-benzoxaborinine-8-carboxylic acid]								100 to 1000	100 to 1000	< 100	1000 to 10000	C (C represents the MIC in the presence of <4 μg/mL of a β-lactamase inhibitor of exemplary compounds)	B (B represents the MIC in the presence of between 8 and 32 μg/mL of a β-lactamase inhibitor of exemplary compounds)	< 100	C (C represents the MIC in the presence of <4 μg/mL of a β-lactamase inhibitor of exemplary compounds)	C (C represents the MIC in the presence of <4 μg/mL of a β-lactamase inhibitor of exemplary compounds)	C (C represents the MIC in the presence of <4 μg/mL of a β-lactamase inhibitor of exemplary compounds)
N=C(N)NC1CN(C2CCC(CC(=O)N[C@H]3Cc4cccc(C(=O)O)c4OB3O)CC2)C1 (stereo partly drawn) [Example 41, (3R)-3-(2-(4-(3-guanidinoazetidin-1-yl)cyclohexyl)acetamido)-2-hydroxy-3,4-dihydro-2H-benzo[e][1,2]oxaborinine-8-carboxylic acid]	< 100	< 4	< 4	< 4	< 4	8 to 32	< 4										
